According to ChEMBL document CHEMBL1201862, “PubChem BioAssay data set” (2004):
Activity calls are given as the source filed them.

Key:
[1] = target: Tumor necrosis factor (Homo sapiens, UniProt P01375); test: TNFa-triggered NF-kB activation inhibitors, SAR follow-up, cell-based, revised (AID 2337); type: functional
[2] = target: Nucleotide-binding oligomerization domain-containing protein 1 (Homo sapiens, UniProt Q9Y239); test: NOD1 signaling inhibitors, SAR follow-up, revised (AID 2333); type: functional
[3] = system: HEK293; test: cells; conditions: Homo sapiens;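 also: cells exposed to compound for 14 hours overnight before viability readout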
[4] = cytotoxicity in HEK-293T cells, dose response, cytotoxicity control for BCR NF-kB inhibitor project, luminescence, B-cell screen hits (AID 489021); type: functional, cell-based;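 also: HEK-293T cells carrying an NF-kB luciferase reporter; cells exposed to compound for about 14 hours before viability readout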
[5] = target: Cytochrome P450 2D6 (Homo sapiens, UniProt P10635);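 also: CYP2D6 member of a cytochrome P450 panel assay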
[6] = target: Glucose-6-phosphate 1-dehydrogenase (Homo sapiens, UniProt P11413); test: human G6PD enzyme inhibitors, dose response, selectivity assay for P. falciparum G6PD inhibitor project, biochemical, fluorescence (AID 504792); type: functional
[7] = target: Cystic fibrosis transmembrane conductance regulator/Golgi-associated PDZ and coiled-coil motif-containing protein (Homo sapiens, UniProt P13569+Q9HD26); test: CAL PDZ peptide-binding inhibitors, dose response, biochemical, fluorescence polarization, Cerulean-tagged CAL PDZ, cherry-picks (AID 504773)
[8] = target: Nonstructural protein 1 (Influenza A virus, UniProt Q194T2); type: functional, Influenza A virus (A/California/07/2009(H1N1))
[9] = human group III sPLA2 inhibitors, dose response, biochemical, QFRET, IC50 (AID 743457);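 also: green fluorescence rise as the enzyme cleaves BODIPY PC-A2 in liposomes; potency for inhibition of the enzyme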
[10] = target: Heat shock protein HSP 90-alpha (Homo sapiens, UniProt P07900); type: functional, organism-based
[11] = target: T1, Kappa-type opioid receptor (Homo sapiens, UniProt P41145); test: SAR analysis of small molecule antagonists of the kappa opioid receptor via a luminescent beta-arrestin assay - Set 4. [Related pubchem assays (depositor defined):AID1777, AID1778, AID1785, AID1786, AID1966, AID2133, AID2136, AID2285]; type: functional
[12] = target: Mu-type opioid receptor (Homo sapiens, UniProt P35372); test: SAR Analysis of Antagonists of the MOR Receptor using an Image-Based Assay - Set 3. [Related pubchem assays (depositor defined):AID1777, AID1785, AID1786, AID1966, AID2133, AID2136, AID2284, AID2285, AID2420]; type: functional
[13] = target: T1, Kappa-type opioid receptor; test: SAR analysis of Antagonists of the Kappa Opioid Receptor (KOR) using an Image-Based Assay - Set 4. [Related pubchem assays (depositor defined):AID1777, AID1785]; type: functional
[14] = target: Delta-type opioid receptor (Homo sapiens, UniProt P41143); test: SAR Analysis of Antagonists of the DOR Receptor using an Image-Based Assay - Set 3. [Related pubchem assays (depositor defined):AID1777, AID1785]; type: functional;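 also: U2OS cells expressing DOR1 and beta-arrestin GFP stimulated with 100 nM SNC80; imaging of GFP-tagged beta-arrestin moving into spots after receptor activation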
[15] = target: Melanin-concentrating hormone receptor 1 (Homo sapiens, UniProt Q99705); test: Late-stage fluorescence-based counterscreen for antagonists of the G-protein coupled receptor 7 (GPR7): cell-based dose response assay to identify antagonists of the melanin-concentrating hormone receptor 1 (MCHR1). [Related pubchem assays (depositor defined):AID1861, AID1880, AID1952, AID2148, AID2251, AID2257, AID485339]; type: functional;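 also: stimulated with 30 nM MCH peptide agonist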
[16] = target: X-box-binding protein 1 (Homo sapiens, UniProt P17861); type: functional, Cricetulus griseus;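 also: confirmatory dose-response counter-screen serving a CHOP assay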
[17] = Luminescence Cell-Based Dose Retest to Confirm Inhibitors of Cancer Stem Cells. [Related pubchem assays (depositor defined):AID2717, AID2721]; type: functional; conditions: Homo sapiens
[18] = inhibition of K1F phage lysis, E. coli UTI89, bacterial capsule biogenesis inhibitors, alamar blue (AID 488966); type: functional

T1 sequence (P41145 whole entry): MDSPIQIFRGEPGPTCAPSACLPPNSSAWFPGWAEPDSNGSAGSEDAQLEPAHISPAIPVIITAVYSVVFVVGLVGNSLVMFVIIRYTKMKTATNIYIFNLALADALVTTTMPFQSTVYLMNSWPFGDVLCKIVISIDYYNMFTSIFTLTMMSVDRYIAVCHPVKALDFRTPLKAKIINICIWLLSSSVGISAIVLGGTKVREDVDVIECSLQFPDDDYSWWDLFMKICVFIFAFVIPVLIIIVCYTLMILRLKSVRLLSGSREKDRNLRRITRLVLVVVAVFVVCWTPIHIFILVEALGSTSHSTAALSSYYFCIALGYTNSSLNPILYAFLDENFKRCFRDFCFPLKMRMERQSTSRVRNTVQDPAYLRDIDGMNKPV
Tumor necrosis factor, sequence (P01375 whole entry, the tested form may be a part): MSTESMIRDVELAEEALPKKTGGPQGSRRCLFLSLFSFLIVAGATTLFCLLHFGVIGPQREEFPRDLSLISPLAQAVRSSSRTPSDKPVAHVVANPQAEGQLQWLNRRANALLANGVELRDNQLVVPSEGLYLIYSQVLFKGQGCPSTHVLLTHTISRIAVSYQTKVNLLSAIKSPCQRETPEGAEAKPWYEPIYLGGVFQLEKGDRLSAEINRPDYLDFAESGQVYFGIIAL
Glucose-6-phosphate 1-dehydrogenase, sequence (P11413 whole entry): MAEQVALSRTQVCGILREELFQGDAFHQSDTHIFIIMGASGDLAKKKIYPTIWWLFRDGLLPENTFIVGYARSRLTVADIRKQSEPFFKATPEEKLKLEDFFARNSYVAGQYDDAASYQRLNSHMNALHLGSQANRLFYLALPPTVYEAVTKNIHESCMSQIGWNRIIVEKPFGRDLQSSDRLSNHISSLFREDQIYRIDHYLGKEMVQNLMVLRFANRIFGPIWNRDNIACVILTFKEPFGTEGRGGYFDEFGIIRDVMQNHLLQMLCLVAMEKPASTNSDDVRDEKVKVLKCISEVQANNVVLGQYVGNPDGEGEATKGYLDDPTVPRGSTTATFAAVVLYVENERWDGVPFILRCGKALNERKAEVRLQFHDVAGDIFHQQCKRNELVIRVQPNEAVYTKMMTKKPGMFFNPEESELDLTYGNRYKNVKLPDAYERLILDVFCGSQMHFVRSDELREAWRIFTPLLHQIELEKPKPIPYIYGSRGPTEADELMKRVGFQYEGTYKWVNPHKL
Nonstructural protein 1, sequence (Q194T2 whole entry): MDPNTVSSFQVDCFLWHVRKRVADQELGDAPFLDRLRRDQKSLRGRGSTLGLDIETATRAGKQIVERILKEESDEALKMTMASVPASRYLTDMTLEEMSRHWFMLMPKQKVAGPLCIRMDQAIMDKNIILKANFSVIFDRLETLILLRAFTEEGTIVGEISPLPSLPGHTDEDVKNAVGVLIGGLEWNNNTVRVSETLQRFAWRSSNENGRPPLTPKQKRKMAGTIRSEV
Melanin-concentrating hormone receptor 1, sequence (Q99705 whole entry): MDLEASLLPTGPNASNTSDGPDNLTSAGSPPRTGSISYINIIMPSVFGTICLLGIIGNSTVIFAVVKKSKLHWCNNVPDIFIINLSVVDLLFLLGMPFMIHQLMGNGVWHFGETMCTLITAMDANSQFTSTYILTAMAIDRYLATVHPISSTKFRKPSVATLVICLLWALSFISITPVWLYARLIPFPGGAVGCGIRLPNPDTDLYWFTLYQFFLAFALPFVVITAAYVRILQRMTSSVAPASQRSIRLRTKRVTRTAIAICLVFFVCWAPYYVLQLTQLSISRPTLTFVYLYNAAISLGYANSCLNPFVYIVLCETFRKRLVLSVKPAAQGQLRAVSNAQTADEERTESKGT
Mu-type opioid receptor, sequence (P35372 whole entry): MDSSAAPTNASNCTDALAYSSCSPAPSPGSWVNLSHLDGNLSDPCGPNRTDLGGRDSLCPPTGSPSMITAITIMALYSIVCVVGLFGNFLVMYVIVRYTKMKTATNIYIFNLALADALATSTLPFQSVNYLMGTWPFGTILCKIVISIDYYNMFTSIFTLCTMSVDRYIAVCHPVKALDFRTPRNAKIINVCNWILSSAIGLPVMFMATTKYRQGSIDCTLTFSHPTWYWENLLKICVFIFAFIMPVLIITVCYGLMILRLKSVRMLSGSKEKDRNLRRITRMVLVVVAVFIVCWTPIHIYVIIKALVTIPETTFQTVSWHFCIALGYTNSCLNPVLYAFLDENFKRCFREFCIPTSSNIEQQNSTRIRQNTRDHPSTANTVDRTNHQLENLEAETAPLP
Cystic fibrosis transmembrane conductance regulator/Golgi-associated PDZ and coiled-coil motif-containing protein, sequence (P13569 whole entry, other chains not shown): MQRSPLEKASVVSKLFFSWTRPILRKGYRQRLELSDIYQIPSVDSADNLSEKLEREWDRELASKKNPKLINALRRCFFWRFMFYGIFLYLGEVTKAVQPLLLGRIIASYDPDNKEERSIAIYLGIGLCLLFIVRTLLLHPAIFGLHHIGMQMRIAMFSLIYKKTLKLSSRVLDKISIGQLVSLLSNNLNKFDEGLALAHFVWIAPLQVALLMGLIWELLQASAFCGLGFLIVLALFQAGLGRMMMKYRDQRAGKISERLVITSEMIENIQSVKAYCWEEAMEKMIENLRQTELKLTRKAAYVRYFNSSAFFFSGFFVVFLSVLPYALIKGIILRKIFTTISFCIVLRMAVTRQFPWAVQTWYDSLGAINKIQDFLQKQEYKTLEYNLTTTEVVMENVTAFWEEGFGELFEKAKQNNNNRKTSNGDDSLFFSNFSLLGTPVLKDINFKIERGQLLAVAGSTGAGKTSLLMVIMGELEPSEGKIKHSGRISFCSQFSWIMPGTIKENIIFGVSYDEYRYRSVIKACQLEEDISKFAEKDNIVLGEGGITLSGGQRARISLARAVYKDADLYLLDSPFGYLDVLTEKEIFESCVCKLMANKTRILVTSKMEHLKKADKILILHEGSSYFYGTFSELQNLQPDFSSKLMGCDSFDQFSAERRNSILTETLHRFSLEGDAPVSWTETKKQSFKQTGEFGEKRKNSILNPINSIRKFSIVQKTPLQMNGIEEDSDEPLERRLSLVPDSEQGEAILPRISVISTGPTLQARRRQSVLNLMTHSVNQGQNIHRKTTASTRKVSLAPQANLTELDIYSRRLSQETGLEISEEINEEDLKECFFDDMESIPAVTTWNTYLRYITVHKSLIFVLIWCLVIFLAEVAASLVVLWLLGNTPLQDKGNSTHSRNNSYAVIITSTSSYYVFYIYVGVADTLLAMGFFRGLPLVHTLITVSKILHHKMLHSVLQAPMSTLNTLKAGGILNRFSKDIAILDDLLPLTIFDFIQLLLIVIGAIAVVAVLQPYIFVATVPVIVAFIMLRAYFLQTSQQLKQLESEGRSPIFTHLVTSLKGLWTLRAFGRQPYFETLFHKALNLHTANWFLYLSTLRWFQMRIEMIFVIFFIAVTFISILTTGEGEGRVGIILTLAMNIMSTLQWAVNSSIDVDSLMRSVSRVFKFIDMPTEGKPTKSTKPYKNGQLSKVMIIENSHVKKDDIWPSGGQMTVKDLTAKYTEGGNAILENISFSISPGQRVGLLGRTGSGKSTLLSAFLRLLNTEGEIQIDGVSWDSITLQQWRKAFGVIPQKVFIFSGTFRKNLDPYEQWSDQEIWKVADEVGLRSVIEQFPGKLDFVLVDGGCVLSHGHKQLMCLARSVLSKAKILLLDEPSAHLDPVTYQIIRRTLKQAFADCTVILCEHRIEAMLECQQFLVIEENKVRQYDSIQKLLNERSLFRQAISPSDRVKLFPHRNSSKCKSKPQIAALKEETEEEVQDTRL
Cytochrome P450 2D6, sequence (P10635 whole entry): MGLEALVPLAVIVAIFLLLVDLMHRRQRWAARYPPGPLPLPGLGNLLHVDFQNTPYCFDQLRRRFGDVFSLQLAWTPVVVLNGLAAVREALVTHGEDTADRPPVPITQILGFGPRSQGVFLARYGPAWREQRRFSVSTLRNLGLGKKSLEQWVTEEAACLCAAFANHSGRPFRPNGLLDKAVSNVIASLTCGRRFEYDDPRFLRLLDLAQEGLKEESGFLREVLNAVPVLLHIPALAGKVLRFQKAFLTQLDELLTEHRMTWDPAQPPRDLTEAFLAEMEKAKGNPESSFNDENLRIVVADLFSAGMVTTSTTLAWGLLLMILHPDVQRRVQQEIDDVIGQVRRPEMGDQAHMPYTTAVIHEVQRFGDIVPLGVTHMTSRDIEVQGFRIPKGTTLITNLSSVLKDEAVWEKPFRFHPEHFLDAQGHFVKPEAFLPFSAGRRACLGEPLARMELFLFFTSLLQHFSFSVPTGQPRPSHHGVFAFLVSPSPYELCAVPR
X-box-binding protein 1, sequence (P17861 whole entry): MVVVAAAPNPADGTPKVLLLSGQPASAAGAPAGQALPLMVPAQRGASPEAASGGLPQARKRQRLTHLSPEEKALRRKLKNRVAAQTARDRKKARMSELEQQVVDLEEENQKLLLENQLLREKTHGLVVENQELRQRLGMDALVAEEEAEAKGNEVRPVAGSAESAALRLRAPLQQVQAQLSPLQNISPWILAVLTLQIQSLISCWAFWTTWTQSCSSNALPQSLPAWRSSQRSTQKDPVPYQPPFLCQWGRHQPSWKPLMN
Delta-type opioid receptor, sequence (P41143 whole entry): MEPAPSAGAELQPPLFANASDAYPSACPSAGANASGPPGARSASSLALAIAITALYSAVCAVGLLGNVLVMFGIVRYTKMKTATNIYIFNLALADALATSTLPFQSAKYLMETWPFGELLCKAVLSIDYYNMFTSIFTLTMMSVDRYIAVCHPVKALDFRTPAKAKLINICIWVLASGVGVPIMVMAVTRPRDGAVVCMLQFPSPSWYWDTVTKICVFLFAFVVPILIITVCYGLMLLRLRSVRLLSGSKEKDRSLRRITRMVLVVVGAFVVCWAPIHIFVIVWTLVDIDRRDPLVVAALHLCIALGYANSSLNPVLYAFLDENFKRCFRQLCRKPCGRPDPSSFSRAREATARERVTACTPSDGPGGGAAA

With `CC1CCc2c(sc(NC(=O)c3ccc(Cl)cc3)c2C(=O)O)C1` (stereo not drawn) the IC50 [1] was 4.41 µM (active), the IC50 [2] was 1.37 µM (active) and the IC50 [3] was 5.2 µM (active).

For `CCOc1ccc(-n2c(SCC(=O)Nc3ccc4c(c3)OCCO4)nc3c(c2=O)SCC3)cc1`, the IC50 [4] was > 80 µM (inactive) and the AC50 [5] was 8.91 µM (inconclusive).

For `COc1ccc2c(c1)c(=Cc1ccc(N(C)C)cc1)c1cc(-c3ccccc3)[n+](C)n12`, the IC50 [6] was 74.7 µM (inactive), the AC50 [7] was > 56 µM (inactive) and the IC50 [8] was 4.56 µM (active). The IC50 [9] was > 40.6 µM (inactive) and the AC50 [10] was 3.93 µM (active).

With `CCC(C)(C)c1ccc(S(=O)(=O)NCc2ccc(C(=O)NCCN(Cc3ccccc3)C(C)C)cc2)cc1` the IC50 [11] was 1.19 µM (active), the IC50 [12] was > 32 µM (inactive) and the IC50 [13] was 0.57 µM (active). The IC50 [14] was > 32 µM (inactive).

In the case of `Cc1ccc(-n2ncc(Cl)c(OC3CCN(C(=O)OC(C)(C)C)CC3)c2=O)cc1`, the IC50 [15] is reported as 5 µM (active).

In the case of `C/N=C1\SC(CC(=O)Nc2ccc(F)cc2F)C(=O)N1/N=C/c1ccc(OC(F)F)c(OC)c1` (stereo not drawn), the “Absolute IC50 (XBP1)” value [16] is reported as 10 µM.

With `O=C(N/N=C/c1cccc(O)c1)c1ccc(COc2ccccc2Br)cc1` the AC50 [17] was 4.82 µM (active) and the IC50 [18] was > 150 µM (active).
